Reference: ChEMBL document CHEMBL1125304, “Synthesis and antitumor activity of 3- and 5-hydroxy-4-methylpyridine-2-carboxaldehyde thiosemicarbazones” (1992)

Assays:
[1] = system: Mus musculus; experiment: Average weight change of mice bearing the L1210 leukemia (24 hr after tumor implantation) after intraperitoneal administration of the 40 mg/kg compound in the DMSO solution form
[2] = system: Mus musculus; experiment: Ratio of the survival time of treated to control mice bearing the L1210 leukemia after intraperitoneal administration of the 40 mg/kg compound in the DMSO solution form
[3] = system: Mus musculus; experiment: Ratio of the survival time of treated to control mice bearing the L1210 leukemia after intraperitoneal administration of the 40 mg/kg compound in the suspension form
[4] = system: Mus musculus; experiment: Average weight change of mice bearing the L1210 leukemia (24 hr after tumor implantation) after intraperitoneal administration of the 40 mg/kg compound in the suspension form
[5] = system: Mus musculus; experiment: Ratio of the survival time of treated to control mice bearing the L1210 leukemia after intraperitoneal administration of the 50 mg/kg compound in the suspension form
[6] = system: Mus musculus; experiment: Average weight change of mice bearing the L1210 leukemia (24 hr after tumor implantation) after intraperitoneal administration of the 50 mg/kg compound in the suspension form

`N/C(S)=N/N=C/c1ncccc1O` was tested, and the Average weight change [1] was 1.5% and the T/C [2] was 114%.

Work on `Cc1cc(/C=N/N=C(/N)S)ncc1O` yielded a T/C [3] of 186%, an Average weight change [1] of -7.4% and an Average weight change [4] of -3.4%. For the same compound, the T/C [2] was 138%.

`N/C(S)=N/N=C/c1ccc(O)cn1` was tested, and the Average weight change [1] was 1.8% and the T/C [2] was 132%.

For `Cc1ccnc(/C=N/N=C(/N)S)c1O`, the T/C [5] was 168%, the Average weight change [6] was 0.9% and the Average weight change [1] was 0.5%. For the same compound, the T/C [2] was 135%.
